According to US12599676B2, “Cytotoxic imidazo[1,2-A]pyridine compounds and their use in therapy” (MyricX Pharma Limited, priority 2022, dated 2026):

Columns and labels:
[1] = system: SU-DHL-10 cell line (human B cell lymphoma); assay: Cell cytotoxicity in SU-DHL-10 cell line (CellTiter-Glo); type: cell-based; settings: 72 h treatment, CTG
Protocol: Certain Example compounds of the invention and Comparator Compound 1 were tested in the SU-DHL-10 cell line (human B cell lymphoma). Compounds which show efficacy in this assay are expected to be useful as agents for treating or preventing hyperproliferative disorders such as cancer.
Cells were seeded in 96-well microplates and treated with compounds or cisplatin (as a positive control) at 9 increasing concentrations in technical triplicate. […] On day 1, 90 μL of various cell suspensions with the number of cells ranging from 5000-8000 cells/well were seeded into wells of a 96-well plate (Corning). The number of cells to be seeded was previously determined. • 2. All 96-wells plates with cells were placed in an incubator overnight at 37° C. with 5% CO2. • 3. On day 2, cells were observed under a microscope ensuring the cells treated with vehicle control were in good condition. • 4. A dilution series of the test compounds and cisplatin were prepared at 10× the final concentrations required. 10 μL/well of 10× compound solution was added to the corresponding plates. The final volume was 100 μL/well for all the plates. Final DMSO concentration was 0.1%. • 5. On day 5 (after 72 hours of incubation), 50 μL of CTG reagent was added to each well. • 6. Contents were mixed for 5 minutes on an orbital shaker to facilitate cell lysis. • 7. The plate was allowed to incubate at room temperature for 10 minutes to stabilize luminescent signals.
Luminescence was recorded using an EnVision Multi Label Reader. Data analysis was performed using GraphPad Prism 8.0.
To calculate IC50, a concentration-response curve was generated using a nonlinear regression model with a sigmoidal concentration response. The formula for calculating the % of viable cells was shown below, and the IC50s are automatically generated by GraphPad Prism 8.0.
(LumTest article=luminescence in test article treated well; LumNone treated=luminescence in vehicle treated well; LumMedium control=luminescence in a well containing only medium and no cells; LumNone treated-LumMedium control was set as 100%)

[2] = Caco-2 cell permeability assay; type: in vitro ADME; settings: human, Caco-2, pH 7.4, basal to apical Papp, pH 7.4, 2.5 h
Protocol: (§1) Certain Example compounds and Comparative Example 1 were tested for their apical to basal (AB) and basal to apical (BA) permeability in Caco-2 cells.
(§2) Cell Culture: Caco-2 cells were grown for 10 days in 96-well plates in HBSS buffer containing 10 mM HEPES. Both the apical and basal pH was buffered at pH 7.4. The apical/basal volumes were 75 μl and 250 μl respectively. The incubation time was 2.5 h at 37° C. (without shaking) under 5% CO2 & 95% relative humidity.
(§3) Cell Seeding: Cells were seeded at a density of 18750 cells/well (membrane area=0.0804 cm^2) in a 96 well plate.
(§4) AB Assay: 75 μl of cell suspension was added at a density 2.5×10^5 cells/ml to the apical wells. 40 ml media was added to the feeder tray. The plates were placed in the incubator (37° C., 5% CO2 and controlled humidity). The Caco-2 cells were grown for 10 days with a media change on every alternate day.
(§5) BA Assay: 25 μl of cell suspension was added at a density of 7.5×10^5 cells/ml to the bottom side (keeping the plate upside down) of apical wells. The plate (upside down position) was placed in the incubator (37° C., 5% CO2 and 95% Relative humidity) for 2 h. The plate was turned right side up. 75 μl media was added to the apical wells and 40 ml media to the feeder tray.
(§6) Permeablity Assay: The apical and basal wells were washed with buffer (pH 7.4) and 250 μl buffer was added to the wells of the basal plate. 75 μl of compound solution (2 μM, dissolved in water with 1% DMSO) was transferred to the apical wells (n=2). The apical plate was placed onto the basal plate. The lid was placed on to prevent evaporation. The assembly was incubated at 37° C. for 2.5 h (without shaking) under 5% CO2 and 95% relative humidity. After incubation the apical plate was separated from the basal plate. Aliquots were taken out from the acceptor and donor wells, diluted and quantified using LC-MS/MS along with initial donor samples.
(§7) Membrane Integrity Test: Solution in the apical wells was discarded by inverting the plate and soaking onto tissue paper. 250 μl buffer (pH 7.4) was added to each well of basal plate and 75 μl of Lucifer Yellow (LY; 0.1 mg/ml) in buffer (pH 7.4) to the wells of apical plate. The apical plate was placed onto the basal plate and the lid used to prevent evaporation. The assembly was incubated at 37° C. for 1 h (without shaking) under 5% CO2 and 95% relative humidity. The apical plate was separated from the basal plate. Fluorescence (Ex: 432 nm, Em: 530 nm) of aliquots (100 ul) was measured from basal wells. Fluorescence of 100 μl buffer (pH 7.4) and 100 μl LY(0.1 mg/ml) was also measured. Wells having more than 1% fluorescence intensity with respect to 0.1 mg/ml LY were considered non-integrated membrane. Such wells, if any, were not considered for permeability calculation.
(§8) Calculation: Drug was detected and quantified by LC-MS/MS. Data generated took the form of an apparent permeability (Papp) value. Papp=[Va/(AreaxTime)]×(LC-MS Area of Acceptor sample×Sample dilution factor/LC-MS Area of Initial Donor). Va=Volume of Acceptor Well (in ml)=0.25, Vd=Volume of Donor Well (in ml)=0.075, Area=Surface area of the membrane (cm2)=0.0804, Time=Time of incubation (sec)=9000 Results: The results of the assay are shown in Table 3 below.

Caco-2 cells = assay: Caco-2 cell permeability assay; type: in vitro ADME; settings: 2 μM, pH 7.4, 2.5 h; for Caco-2 A-B: apical to basal Papp; for Caco-2 B-A: basal to apical Papp
Protocol: as §1, §2, §3, §4, §5, §6, §7, §8

| SMILES | IC50 [1] [nM] | Papp B→A at 2.5 h, 2 μM [2] [×10⁻⁶ cm/s] | Caco-2 A-B (Caco-2 cells) [×10⁻⁶ cm/s] | IC50 ([1]; Homo sapiens, SU-DHL10, 72 h) [nM] | Caco-2 B-A (Caco-2 cells) [×10⁻⁶ cm/s] |
| --- | --- | --- | --- | --- | --- |
| Cc1c(CCOc2cc(F)ccc2-c2ccc3ncc(CN(C)C)n3c2)c(C(C)O)nn1C (single isomer, unassigned) [Example 3, 1-(4-(2-(2-(3-((dimethylamino)methyl)imidazo[1,2-a]pyridin-6-yl)-5-fluorophenoxy)ethyl)-1,5-dimethyl-1H-pyrazol-3-yl)ethan-1-ol] | 9.4 | 22.6 | 1.2 | – | – |
| Cc1c(CCOc2cc(F)ccc2-c2ccc3ncc(CN(C)C)n3c2)c(C(C)O)nn1C (single isomer, unassigned) [Example 4, 1-(4-(2-(2-(3-((dimethylamino)methyl)imidazo[1,2-a]pyridin-6-yl)-5-fluorophenoxy)ethyl)-1,5-dimethyl-1H-pyrazol-3-yl)ethan-1-ol] | – | – | 1.3 | 12 | 24.9 |
| CNCc1cnc2ccc(-c3ccc(F)cc3OCCc3c(C(O)C(C)(C)C)nn(C)c3C)cn12 (single isomer, unassigned) [Example 9, 1-(4-(2-(5-fluoro-2-(3-((methylamino)methyl)imidazo[1,2-a]pyridin-6-yl)phenoxy)ethyl)-1,5-dimethyl-1H-pyrazol-3-yl)-2,2-dimethylpropan-1-ol] | 0.6 | 8.02 | 0.26 | – | – |
| CNCc1cnc2ccc(-c3ccc(F)cc3OCCc3c(C(O)C(C)(C)C)nn(C)c3C)cn12 (single isomer, unassigned) [Example 10, 1-(4-(2-(5-fluoro-2-(3-((methylamino)methyl)imidazo[1,2-a]pyridin-6-yl)phenoxy)ethyl)-1,5-dimethyl-1H-pyrazol-3-yl)-2,2-dimethylpropan-1-ol] | 2 | – | 0.305 | – | 8.89 |
| CNCc1cnc2ccc(-c3ccc(F)c(F)c3OCCc3c(C(O)C(C)(C)C)nn(C)c3C)cn12 (single isomer, unassigned) [Example 13, 1-(4-(2-(2,3-difluoro-6-(3-((methylamino)methyl)imidazo[1,2-a]pyridin-6-yl)phenoxy)ethyl)-1,5-dimethyl-1H-pyrazol-3-yl)-2,2-dimethylpropan-1-ol] | 0.7 | – | – | – | – |
| Cc1c(CCOc2c(-c3ccc4ncc(CN(C)C)n4c3)ccc(F)c2F)c(C(O)C(C)(C)C)nn1C (single isomer, unassigned) [Example 15, 1-(4-(2-(6-(3-((dimethylamino)methyl)imidazo[1,2-a]pyridin-6-yl)-2,3-difluorophenoxy)ethyl)-1,5-dimethyl-1H-pyrazol-3-yl)-2,2-dimethylpropan-1-ol] | 1.2 | 7.44 | 1.345 | – | – |
| Cc1c(CCOc2c(-c3ccc4ncc(CN(C)C)n4c3)ccc(F)c2F)c(C(O)C(C)(C)C)nn1C (single isomer, unassigned) [Example 16, 1-(4-(2-(6-(3-((dimethylamino)methyl)imidazo[1,2-a]pyridin-6-yl)-2,3-difluorophenoxy)ethyl)-1,5-dimethyl-1H-pyrazol-3-yl)-2,2-dimethylpropan-1-ol] | 0.2 | – | 1.395 | – | 9.06 |
| CNCc1cnc2ccc(-c3ccc(F)cc3OCCc3c(C(O)C(C)(C)C)nn(C)c3C)cn12 (centres unmarked) [Example 8, 1-(4-(2-(5-fluoro-2-(3-((methylamino)methyl)imidazo[1,2-a]pyridin-6-yl)phenoxy)ethyl)-1,5-dimethyl-1H-pyrazol-3-yl)-2,2-dimethylpropan-1-ol] | – | – | – | 0.7 | – |
| Cc1c(CCOc2cc(F)ccc2-c2ccc3ncc(CN(C)C)n3c2)c(C(O)C(C)(C)C)nn1C (centres unmarked) [Example 11, 1-(4-(2-(2-(3-((dimethylamino)methyl)imidazo[1,2-a]pyridin-6-yl)-5-fluorophenoxy)ethyl)-1,5-dimethyl-1H-pyrazol-3-yl)-2,2-dimethylpropan-1-ol] | – | 78 | 15.9 | 0.9 | – |
| Cc1c(CCOc2c(-c3ccc4ncc(CN)n4c3)ccc(F)c2F)c(C(O)C(C)(C)C)nn1C (centres unmarked) [Example 17, 1-(4-(2-(6-(3-(aminomethyl)imidazo[1,2-a]pyridin-6-yl)-2,3-difluorophenoxy)ethyl)-1,5-dimethyl-1H-pyrazol-3-yl)-2,2-dimethylpropan-1-ol] | – | – | – | 1 | – |
| Cc1c(CCOc2cc(F)ccc2-c2ccc3ncc(CN(C)C)n3c2)c(C(C)(C)O)nn1C [Example 19, 2-(4-(2-(2-(3-((dimethylamino)methyl)imidazo[1,2-a]pyridin-6-yl)-5-fluorophenoxy)ethyl)-1,5-dimethyl-1H-pyrazol-3-yl)propan-2-ol] | – | 29.4 | 3.5 | – | – |
| Cc1c(CCOc2c(-c3ccc4ncc(CN)n4c3)ccc(F)c2F)c(C(C)(C)O)nn1C [Example 20, 2-[4-(2-{6-[3-(aminomethyl)imidazo[1,2-a]pyridin-6-yl]-2,3-difluorophenoxy}ethyl)-1,5-dimethyl-1H-pyrazol-3-yl]propan-2-ol] | – | – | – | 12 | – |
| CCNCc1cnc2ccc(-c3ccc(F)cc3OCCc3c(C(C)(C)O)nn(C)c3C)cn12 [Example 22, 2-{4-[2-(2-{3-[(ethylamino)methyl]imidazo[1,2-a]pyridin-6-yl}-5-fluorophenoxy)ethyl]-1,5-dimethyl-1H-pyrazol-3-yl}propan-2-ol] | – | – | – | 9 | – |
| Cc1c(CCOc2cc(F)ccc2-c2ccc3ncc(CCN)n3c2)c(C(C)(C)O)nn1C [Example 23, 2-(4-(2-(2-(3-(2-aminoethyl)imidazo[1,2-a]pyridin-6-yl)-5-fluorophenoxy)ethyl)-1,5-dimethyl-1H-pyrazol-3-yl)propan-2-ol] | – | 9.7 | 0 | – | – |
| Cc1c(CCOc2cc(F)ccc2-c2ccc3ncc(CN(C)C)n3c2)c(C(O)C(C)C)nn1C (centres unmarked) [Example 24, 1-(4-(2-(2-(3-((dimethylamino)methyl)imidazo[1,2-a]pyridin-6-yl)-5-fluorophenoxy)ethyl)-1,5-dimethyl-1H-pyrazol-3-yl)-2-methylpropan-1-ol] | – | – | – | 0.7 | – |
| CNCc1cnc2ccc(-c3ccc(F)c(F)c3OCCc3c(C(O)C(C)C)nn(C)c3C)cn12 (centres unmarked) [Example 25, 1-{4-[2-(2,3-difluoro-6-{3-[(methylamino)methyl]imidazo[1,2-a]pyridin-6-yl}phenoxy)ethyl]-1,5-dimethyl-1H-pyrazol-3-yl}-2-methylpropan-1-ol] | – | – | – | 1 | – |
